The values that follow come from patent US8691864B2, “Agents useful for reducing amyloid precursor protein and treating dementia and methods of use thereof” (priority 2000, dated 2014).

Structures are written as SMILES.

In data set [1] the test system is cholinesterase. Type of data set: biochemical.
The test system of data set [2] is βAPP. In words: βAPP levels in SK-N-SH cells (conditioned media and cell lysates), western blot. Type of data set: cell-based, human. On the procedure:
(§1) SK-N-SH neuroblastoma cells were cultured on 60 mm dishes at a concentration of 3×10^6 cells, and SH-SY-5Y neuroblastoma and U373 astrocytorna cell lines were plated in 100 mm dishes at a concentration of 3×10^5 cells. The cells were allowed to grow in complete medium ([…], 2 mM glutamine in DMEM) for 3 to 4 days until they reached 70% confluence. To start the experiment, spent medium was removed and replaced with fresh medium (SKNSH—4 ml of DMEM+0.5% FBS; U373—5 ml of DMEM+2.5% FBS) containing 0, 5, or 50 μM phenserine. The cells were incubated at 37° C., 5% CO2 for the specific times indicated. Different media and sera were purchased from Life Technologies (Gaithersberg, Md.).
(§2) At each time point, the spent medium was collected and stored at −70° C. for later analysis of secretory βAPP levels. The cells were washed twice with PBS, pH 7.4 and incubated on ice for 15 min for lysis with 100 μL of lysis buffer (20 mM HEPES, 2 mM EGTA, 50 mM (β-glycophosphate, 1 mM sodium orthovanadate, 1% Triton X-100, 10% glycerol) containing appropriate protease inhibitors (2 mM PMSF, 100 μg/mL aprotinin, 25 μM leupeptin and 20 μg/mL soybean trypsin inhibitor). Each lysate was microcentrifuged for 15 min at 14 000 rpm. Protein levels of the supernatant were analyzed by the Bradford protein assay (BioRad, Melville, N.Y.).
Fifteen μg of protein from each sample was mixed with the appropriate volume of 5× Laemmli buffer and boiled for 5 min at 100° C. The samples were loaded onto a 10% NuPAGE Bis-Tris gel in 1×NuPAGE MOPS SDS running buffer (NOVEX, San Diego, Calif.) and the proteins separated at 200 V for 45 min. The gels then were transferred onto nitrocellulose at 25 V for 1.5 h. The blots were blocked with 5% non-fat dry milk in 10 mM Tris, pH 8.0 containing 150 mM NaCl for 1 h and washed twice for 15 min in large volumes of TBST (10 mM Tris, pH 8.0, 150 mM NaCl and 0.05% Tween 20). Each blot was probed for 2 h with either 22C11 anti-βAPP-terminal antibody (Boehringer Mannheim, Indianapolis, Ind.), diluted to a concentration of 2.5 μg/mL or anti-activated ERK antibody (Promega, Madison, Wis.), diluted to a concentration of 25 ng/mL. The blots were washed twice for 15 min in TBST and placed in secondary antibody, anti-mouse IgG- or anti-rabbit IgG conjugated to horse radish peroxidase (Sigma, St. Louis, Mo.), for 30 min. Three final TBST washes of 20 min duration each were performed before the samples were detected by chemiluminescence and exposed to film, as per the manufacturer's instructions (Amersham Life Science Inc., Arlington Heights, Ill.). Additionally, all blots also were stained with Ponceau S (Sigma, St. Louis, Mo.) to determine equivalent loading of samples. Densitometric quantification of blots was undertaken by using a […] and NIH-IMAGE (version 4.1).
Western blots of conditioned media (FIG. 4A) and cell lysates (FIG. 4B) were probed; with a N-terminal directed anti-βAPP antibody.
3×10^6 SK-N-SH cells were plated on 60 mm dishes with DMEM containing 10% FBS. After 36 hours, cells were incubated with low serum medium for 1 hour. Thereafter, the medium was replaced with fresh low serum medium (0.5% FBS). […] The cells were incubated with and without phenserine for 16 hours. At the stated time (4, 8 and 16 hrs), 200 μl of medium was transferred from each dish for assessment of extracellular APP levels. At the end of experiments (16 hrs), the cells were lysed and collected for assessment of intracellular APP levels.
15 μL of medium samples and 15 μg of total protein from each lysed samples were loaded onto 10% trys-glycine gels, and the protein was separated at 150 V for 90 min. The gels were transferred onto polyvinylidene difluoride paper and probed with an affinity-purified anti-APP antibody (22C11), which recognizes the ectodomain of APP (residues 66-81). The APP signals were detected by chemiluminescence and exposed to film. The quantitation of the signals was determined by using a CD camera and NIH-IMAGE (version 4.0). […]
For orientation: A western blot detects proteins with antibodies after separation by electrophoresis.

The subject of data set [3] is SK-N-SH cells. In words: LDH assay / cell number and viability, SK-N-SH cells. In kind it is cell-based, human. As to conditions: for toxicity by cell number and viability (LDH measurement): cymserine and analogs. An excerpt: Measurement of released lactate dehydrogenase (LDH) in the conditioned medium was undertaken as a marker of cell viability and integrity, as described previously (Lahiri et al., 1997 and 1998).
This was not associated with cellular dysfunction, as determined by measurement of LDH levels versus untreated controls (FIG. 4C).

Data set [4] concerns total Aβ peptide. In words: total Aβ ELISA in SK-N-SH conditioned medium. Type of data set: cell-based, human. The settings on record: for Aβ peptide levels: cymserine and analogs. On the procedure: Total Aβ peptide levels in SH-SY-SY and SK-N-SH cultured samples were assayed by a sensitive ELISA (Suzuki et al., 1994). For total Aβ measurements in conditioned medium, the rabbit polyclonal antibody #3160 (1-40 residues of Aβ) was used as a capture antibody for all species of Aβ peptide (Aβ1-40 and Aβ1-42) while monoclonal antibody 4G8 (17-25 residues of Aβ) was used to detect Aβ peptide levels, and the values were expressed as the mean of six independent assays.
Likewise, (+)-phenserine reduced BAPP protein levels and total Aβ peptide levels at 16 hours (FIG. 5).
(In general: An ELISA detects its analyte on a solid surface through an enzyme-linked reagent.)

The test system of data set [5] is βAPP. In words: βAPP protein levels in SH-SY5Y cell lysates, western blot. The settings on record: 5 μM, 0.5, 1, 2 and 4 hours. In kind it is cell-based, human. On the procedure: as §1
as §2, with “N.Y.). […]” for “N.Y.).”

The subject of data set [6] is ERK½. In words: phosphorylated ERK in SH-SY5Y cells, western blot. In kind it is cell-based, human. The settings on record: 5 μM, 0.5-4 hours. How it is done: Fifteen μg of protein from each sample was mixed with the appropriate volume of 5× Laemmli buffer and boiled for 5 min at 100° C. The samples were loaded onto a 10% NuPAGE Bis-Tris gel in 1×NuPAGE MOPS SDS running buffer (NOVEX, San Diego, Calif.) and the proteins separated at 200 V for 45 min. The gels then were transferred onto nitrocellulose at 25 V for 1.5 h. The blots were blocked with 5% non-fat dry milk in 10 mM Tris, pH 8.0 containing 150 mM NaCl for 1 h and washed twice for 15 min in large volumes of TBST (10 mM Tris, pH 8.0, 150 mM NaCl and 0.05% Tween 20). […] Three final TBST washes of 20 min duration each were performed before the samples were detected by chemiluminescence and exposed to film, as per the manufacturer's instructions (Amersham Life Science Inc., Arlington Heights, Ill.). […] Densitometric quantification of blots was undertaken by using a […] and NIH-IMAGE (version 4.1).
SH-SY5Y cells were incubated with 5 μM (+)-phenserine or (−) phenserine for 0, 0.5, 1, 2 and 4 hours to determine the effect of the drug on βAPP protein levels. Western blots of cell lysates containing 15 μg of total protein per lane were analyzed. […] Stress activated transcription kinases, p38 and JNK, were not detected in the samples. […]

A short description of data set [7]: in vivo toxicity, i.p. administration to rodents. As to conditions: 20 mg/kg. How it is done: This persisted for an hour and is related to central cholinergic overdrive. […] Animals were incapacitated at 20 mg/kg (N=3 per dose group), and 2 were killed when moribund.
Data set [8] deals with cholinesterase. As to conditions: Greig et al., 1995; Brossi et al., 1996; cited from earlier work.
Data set [9] concerns Aβ1-40. In words: Aβ1-40 levels in cerebral cortex of transgenic mice, ELISA. As to conditions: formic acid extraction, 3 weeks daily. In kind it is in vivo. How it is done:
(§3) Greater reductions could be achieved, but, as previously reported, doses of >5 mg/kg produce cholinergic side effects for the (−)-enantiomer but not for the (+)-enantiomer.
(§4) Samples of cerebral cortex from the transgenic mice then were analyzed for β amyloid peptide (Aβ) levels. Specifically, Aβ1-40 and Aβ1-42 levels, following formic acid extraction, were determined by ELISA assay (Suzuki et al., 1994).

The test system of data set [10] is Aβ1-42. In words: Aβ1-42 levels in cerebral cortex of transgenic mice, ELISA. In kind it is in vivo. As to conditions: formic acid extraction, 3 weeks daily. On the procedure:
as §3, §4

For data set [11], the system named is βAPP and Aβ. The settings on record: neuronal cells in vitro; Lahiri et al., 1998; cited from earlier work.

Consider `CC(C)c1ccc(NC(=O)Oc2ccc3c(c2)[C@]2(C)CCN(C)[C@@H]2N3C)cc1` [(−)-cymserine], for which the “anticholinesterase activity / action” value in data set [1] was “possessed anticholinesterase action”. Also, the βAPP protein levels entry in [2] (cymserine and analogs (FIG. 7)) is reported as “reduced βAPP protein levels”. Besides, the “toxicity by cell number and viability (LDH measurement)” value (“toxicity … (LDH measurement)” below) in [3] (SK-N-SH) is listed as “no toxicity”. In addition, the Aβ peptide levels result in data set [4] is on record as “also reduced”.

Take `CC(C)c1ccc(NC(=O)Oc2ccc3c(c2)[C@]2(C)CCNC2N3)cc1` (single isomer, unassigned; (-)) [(−)-N^1,N^8-bisnorcymserine]: the βAPP protein levels result in [2] (cymserine and analogs (FIG. 7)) is recorded as “reduced βAPP protein levels”. For the same compound, in data set [3] (SK-N-SH), the “toxicity … (LDH measurement)” value is “no toxicity”. Besides, in data set [3], the “toxicity at higher concentrations” value is “toxic”. For the same compound, the Aβ peptide levels result in [4] is recorded as “also reduced”.

In the case of `CNC(=O)Oc1ccc2c(c1)[C@]1(C)CCN(C)[C@@H]1N2C` [(−)-physostigmine, reference compound], in data set [2] (50 μM), the βAPP protein levels result is given as “no reduction or change”. Further, the “total Aβ peptide levels” value in data set [4] (50 μM) was “no reduction or change”.

As to `CN1CCC2(C)c3cc(OC(=O)Nc4ccccc4)ccc3N(C)C12` (single isomer, unassigned; (+)) [(+)-phenserine, (+)-Phenserine], in data set [1], the “anticholinesterase activity / action” value is “devoid of anticholinesterase activity”. Also, the “βAPP levels in the cell lysates” value in data set [5] is “slowly decreased at each time point”. For the same compound, the “ERK½ (phosphorylated) detection” value in data set [6] was “peaked at the 30 minute to 1 hour period”. The BAPP protein levels result in data set [2] (16 hours (FIG. 5)) was “reduced”. Moreover, the “toxicity by cell number and viability (LDH levels)” value in [3] (SK-N-SH, 16 hours (FIG. 5)) is “not associated with toxicity”. For the same compound, the “total Aβ peptide levels” value in data set [4] (16 hours (FIG. 5)) is reported as “reduced”. In addition, the clinical signs entry in data set [7] is “without clinical symptoms and appeared normal”. The anti-cholinesterase activity result in [8] is recorded as “no anti-cholinesterase activity”.

For the compound `CC(C)c1ccc(NC(=O)Oc2ccc3c(c2)[C@@]2(C)CCN(C)[C@H]2N3C)cc1` [(+)-cymserine, (+)-Cymserine], in data set [1], the “anticholinesterase activity / action” value is listed as “devoid of it”. Also, the βAPP protein levels entry in data set [2] (cymserine and analogs (FIG. 7)) is listed as “reduced βAPP protein levels”. In addition, the “toxicity … (LDH measurement)” value in data set [3] (SK-N-SH) is “no toxicity”. Also, in [4], the Aβ peptide levels result is on record as “also reduced”.

As for `CC(C)c1ccc(NC(=O)Oc2ccc3c(c2)[C@]2(C)CCN(CCc4ccccc4)[C@@H]2N3C)cc1` [(−)-N^1-phenethylcymserine], in data set [2] (cymserine and analogs (FIG. 7)), the βAPP protein levels result is on record as “reduced βAPP protein levels”. Moreover, the “toxicity … (LDH measurement)” value in data set [3] (SK-N-SH) is reported as “no toxicity”. Also, the “toxicity at higher concentrations” value in [3] is “toxic”. For the same compound, in [4], the Aβ peptide levels result is “also reduced”. The “reduction of Aβ1-40 levels” value in data set [9] was 54%. Also, in data set [10], the “reduction of Aβ1-42 levels” value stood at 47%.

For `Nc1c2c(nc3ccccc13)CCCC2` [tacrine], in data set [11], the “βAPP and Aβ” value is “decrease βAPP and Aβ”.
